What was measured:
[1] = tested on: antibodies in sera from SARS patients (sera 1a, 1b, 2, 6, 37, 62, London, SARS-yellow, SARS-green); type: binding, human; set-up: Binding of serum 6 to linear peptides of protein X1 of SARS-CoV Urbani / Binding of serum 37 to linear peptides of protein X1 of SARS-CoV Urbani / Binding of serum 6 to looped/cyclic peptide (PEPSCAN-ELISA) / Binding of serum 37 to looped/cyclic peptide (PEPSCAN-ELISA) / Binding of serum 37 to looped/cyclic peptides of protein X1 of SARS-CoV Urbani / Binding of serum 6 to linear peptides of protein X2 / Binding of serum 37 to linear peptides of protein X2 / Binding of serum 37 to looped/cyclic peptides of protein X2 of SARS-CoV Urbani / Binding of serum 6 to linear peptides of protein M of SARS-CoV Urbani / Binding of serum 37 to linear peptides of protein M of SARS-CoV Urbani / Binding of serum 6 to looped/cyclic peptides of protein M of SARS-CoV Urbani / Binding of serum 37 to looped/cyclic peptides of protein M of SARS-CoV Urbani / Binding of serum 6 to linear peptides of protein X3 of SARS-CoV Urbani / Binding of serum 37 to linear peptides of protein X3 of SARS-CoV Urbani / Binding of serum 37 to looped/cyclic peptides of protein X3 of SARS-CoV Urbani / Binding of serum 6 to linear peptides of protein X4 of SARS-CoV Urbani / Binding of serum 37 to linear peptides of protein X4 of SARS-CoV Urbani / Binding of serum 37 to looped/cyclic peptides of protein X4 of SARS-CoV Urbani / Binding of serum 6 to linear peptides of protein X5 of SARS-CoV Urbani / Binding of serum 37 to linear peptides of protein X5 of SARS-CoV Urbani / Binding of serum 37 to looped/cyclic peptides of protein X5 of SARS-CoV Urbani / Binding of serum 6 to linear peptides of protein N of SARS-CoV Urbani / Binding of serum 37 to linear peptides of protein N of SARS-CoV Urbani / Binding of serum 6 to linear peptide (PEPSCAN-ELISA) / Binding of serum 1a to looped/cyclic peptides of protein N of SARS-CoV Urbani / Binding of serum 1b to looped/cyclic peptides of protein N of SARS-CoV Urbani / Binding of serum 2 to looped/cyclic peptides of protein N of SARS-CoV Urbani / Binding of serum 6 to looped/cyclic peptides of protein N of SARS-CoV Urbani / Binding of serum 37 to looped/cyclic peptides of protein N of SARS-CoV Urbani / Binding of serum 62 to looped/cyclic peptides of protein N of SARS-CoV Urbani / Binding of serum London to looped/cyclic peptides of protein N of SARS-CoV Urbani / Binding of serum SARS-green to looped/cyclic peptides of protein N of SARS-CoV Urbani: unit not given here
[2] = tested on: recombinant human anti-SARS-CoV antibody 03-018; type: binding; set-up: Binding of antibody 03-018 to linear peptides of the N protein of SARS-CoV Urbani / Binding of antibody 03-018 to looped/cyclic peptides of the N protein of SARS-CoV Urbani: unit not given here
[3] = tested on: rabbit serum obtained by immunizing a rabbit with the SARS-CoV strain Frankfurt 1; type: binding; set-up: Binding of a rabbit serum to linear peptides / Binding of a rabbit serum to looped peptides / Rabbit serum linear peptides / Rabbit serum looped peptides / Binding of a rabbit serum to linear peptides of protein N of SARS-CoV Urbani (Rabbit serum linear peptides) / Binding of a rabbit serum to looped/cyclic peptides of protein N of SARS-CoV Urbani (Rabbit serum looped peptides): unit not given here
[4] = tested on: control sera (pooled serum of ten healthy LUMC hospital workers; commercial negative donor pooled serum from the Dutch bloodbank); type: binding, human; set-up: Binding of Control serum LUMC to linear peptides / Binding of Control serum Blood-bank to linear peptides / Binding of Control serum LUMC to looped peptides / Binding of Control Serum Blood-Bank to Looped peptides / Binding of Control serum LUMC to linear peptides of the protein M of SARS-CoV Urbani / Binding of Control serum Blood-bank to linear peptides of the protein M of SARS-CoV Urbani / Binding of Control serum LUMC to looped peptides of the protein M of SARS-CoV Urbani / Binding of Control Serum Blood-Bank to Looped peptides of the protein M of SARS-CoV Urbani: unit not given here

Row | Sequence | Binding of serum 1a to linear peptides of protein N of SARS-CoV Urbani [1] | Binding of serum 1a to looped/cyclic peptides of protein N of SARS-CoV Urbani [1] | Binding of serum 1b to linear peptides of protein N of SARS-CoV Urbani [1] | Binding of serum 1b to looped/cyclic peptides of protein N of SARS-CoV Urbani [1] | Binding of serum 2 to linear peptides of protein N of SARS-CoV Urbani [1] | Binding of serum 2 to looped/cyclic peptides of protein N of SARS-CoV Urbani [1] | Binding of serum 6 to linear peptides of protein N of SARS-CoV Urbani [1] | Binding of serum 6 to looped/cyclic peptides of protein N of SARS-CoV Urbani [1] | Binding of serum 37 to linear peptides of protein N of SARS-CoV Urbani [1] | Binding of serum 37 to looped/cyclic peptides of protein N of SARS-CoV Urbani [1] | Binding of serum 62 to linear peptides of protein N of SARS-CoV Urbani [1] | Binding of serum 62 to looped/cyclic peptides of protein N of SARS-CoV Urbani [1] | Binding of serum London to linear peptides of protein N of SARS-CoV Urbani [1] | Binding of serum London to looped/cyclic peptides of protein N of SARS-CoV Urbani [1] | Binding of serum SARS-green to linear peptides of protein N of SARS-CoV Urbani [1] | Binding of serum SARS-green to looped/cyclic peptides of protein N of SARS-CoV Urbani [1] | Binding of serum SARS-yellow to linear peptides of protein N of SARS-CoV Urbani [1] | Binding of serum SARS-yellow to looped/cyclic peptides of protein N of SARS-CoV Urbani [1] | Binding of antibody 03-018 to linear peptides of the N protein of SARS-CoV Urbani [2] | Binding of antibody 03-018 to looped/cyclic peptides of the N protein of SARS-CoV Urbani [2] | further results
1 | EGIVWVATEGALNTP | 0.3 | 0.3 | 0.2 | 0.2 | 0.3 | 0.4 | 0.2 | 0.2 | 0.8 | 0.7 | 0.7 | 0.6 | 0.5 | 0.3 | 0.4 | 0.4 | 0.6 | 0.6 | 0.1 | 0.2 | Binding of a rabbit serum to linear peptides of protein N of SARS-CoV Urbani (Rabbit serum linear peptides) [3]: 0.1; Binding of a rabbit serum to looped/cyclic peptides of protein N of SARS-CoV Urbani (Rabbit serum looped peptides) [3]: 0.4; Binding of Control Serum Blood-Bank to Looped peptides [4]: 0.6; Binding of Control serum Blood-bank to linear peptides [4]: 0.8; Binding of Control serum LUMC to linear peptides [4]: 0.8; Binding of Control serum LUMC to looped peptides [4]: 0.6
2 | GANKEGIVWVATEGA | 0.2 | 0.2 | 0.1 | 0.1 | 0.2 | 0.2 | 0.1 | 0.1 | 0.7 | 0.5 | 0.6 | 0.3 | 0.4 | 0.3 | 0.2 | 0.2 | 0.6 | 0.4 | 0.1 | 0.2 | Binding of a rabbit serum to linear peptides of protein N of SARS-CoV Urbani (Rabbit serum linear peptides) [3]: 0.2; Binding of a rabbit serum to looped/cyclic peptides of protein N of SARS-CoV Urbani (Rabbit serum looped peptides) [3]: 0.5; Binding of Control Serum Blood-Bank to Looped peptides [4]: 0.4; Binding of Control serum Blood-bank to linear peptides [4]: 0.5; Binding of Control serum LUMC to linear peptides [4]: 0.5; Binding of Control serum LUMC to looped peptides [4]: 0.5
3 | QHGKEELRFPRGQGV | 0.2 | 0.4 | 0.2 | 0.3 | 0.3 | 0.5 | 0.1 | 0.4 | 0.7 | 0.6 | 0.7 | 0.4 | 0.5 | 0.6 | 0.4 | 0.4 | 0.6 | 0.7 | 0.1 | 0.2 | Binding of a rabbit serum to linear peptides of protein N of SARS-CoV Urbani (Rabbit serum linear peptides) [3]: 0.2; Binding of a rabbit serum to looped/cyclic peptides of protein N of SARS-CoV Urbani (Rabbit serum looped peptides) [3]: 0.5; Binding of Control Serum Blood-Bank to Looped peptides [4]: 0.7; Binding of Control serum Blood-bank to linear peptides [4]: 0.8; Binding of Control serum LUMC to linear peptides [4]: 0.7; Binding of Control serum LUMC to looped peptides [4]: 0.7
4 | GKEELRFPRGQGVPI | 0.3 | 0.5 | 0.1 | 0.4 | 0.3 | 0.8 | 0.2 | 0.3 | 0.7 | 0.9 | 0.7 | 1.1 | 0.5 | 0.6 | 0.6 | 0.9 | 0.6 | 0.7 | 0.1 | 0.3 | Binding of a rabbit serum to linear peptides of protein N of SARS-CoV Urbani (Rabbit serum linear peptides) [3]: 0.1; Binding of a rabbit serum to looped/cyclic peptides of protein N of SARS-CoV Urbani (Rabbit serum looped peptides) [3]: 0.6; Binding of Control Serum Blood-Bank to Looped peptides [4]: 0.9; Binding of Control serum Blood-bank to linear peptides [4]: 0.9; Binding of Control serum LUMC to linear peptides [4]: 0.8; Binding of Control serum LUMC to looped peptides [4]: 0.9

From patent US20070128217A1 (priority 2003, published 2007)
